Reference: patent publication US9346809B2 (LEO PHARMA A/S, priority 2009, dated 2016)
pEC50: −log10 of the molar value. Read-outs that look alike come from different tables or passages of the source.

Legend:
Format in all cases: biochemical
[1] = target: T1, JAK1 (aa 850-1154, catalytic domain, GST-tag) (Homo sapiens, UniProt P23458); test: JAK kinase assay (HTRF, phosphorylation of TK substrate-biotin), JAK1; conditions: ATP at Km (7 μM)
T1 construct: JAK1 (aa 850-1154) and TYK2 (aa 871-1187) are expressed with an N-terminally fused GST-tag; GST (N); purchased Carna Biosciences, Inc; host or cells: baculovirus expression system
Procedure, shortened: (§1)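 Per reaction, 5 ng JAK1, 0.1 ng JAK2, 0.3 ng JAK3 or 0.8 ng TYK2 (baculovirus-expressed catalytic domains) acted on 1 μM TK substrate-biotin at Km ATP for 20-30 min, RT. Phosphorylation measured by HTRF.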

[2] = target: T2, JAK2 (catalytic domain, His-tag) (Homo sapiens, UniProt O60674); test: JAK kinase assay (HTRF, phosphorylation of TK substrate-biotin), JAK2; conditions: ATP at Km (4 μM)
T2 construct: All four purified enzymes contain only the catalytic domain; His (N); purchased Carna Biosciences, Inc; host or cells: baculovirus expression system
Procedure, shortened: as §1

[3] = target: T3, JAK3 (catalytic domain, His-tag) (Homo sapiens, UniProt P52333); test: JAK kinase assay (HTRF, phosphorylation of TK substrate-biotin), JAK3; conditions: ATP at Km (2 μM)
T3 construct: All four purified enzymes contain only the catalytic domain; His (N); purchased Carna Biosciences, Inc; host or cells: baculovirus expression system
Procedure, shortened: as §1

[4] = target: T4, TYK2 (aa 871-1187, catalytic domain, GST-tag) (Homo sapiens, UniProt P29597); test: JAK kinase assay (HTRF, phosphorylation of TK substrate-biotin), TYK2; conditions: ATP at Km (13 μM)
T4 construct: JAK1 (aa 850-1154) and TYK2 (aa 871-1187) are expressed with an N-terminally fused GST-tag; GST (N); purchased Carna Biosciences, Inc; host or cells: baculovirus expression system
T4 sequence (P29597 871-1187): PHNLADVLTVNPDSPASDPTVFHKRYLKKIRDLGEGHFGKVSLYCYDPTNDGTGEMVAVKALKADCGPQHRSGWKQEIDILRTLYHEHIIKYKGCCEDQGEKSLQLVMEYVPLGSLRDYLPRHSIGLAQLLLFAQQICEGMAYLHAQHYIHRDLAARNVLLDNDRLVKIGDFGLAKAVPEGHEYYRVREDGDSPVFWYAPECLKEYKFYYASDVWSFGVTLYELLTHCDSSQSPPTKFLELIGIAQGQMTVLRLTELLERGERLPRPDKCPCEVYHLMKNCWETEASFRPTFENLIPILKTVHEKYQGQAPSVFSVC
Procedure, shortened: as §1

[5] = read-out: JAK1 kinase inhibitory activity (EC50 indicator)
[6] = read-out: JAK2 kinase inhibitory activity (EC50 indicator)
[7] = read-out: JAK3 kinase inhibitory activity (EC50 indicator)
[8] = read-out: TYK2 kinase inhibitory activity (EC50 indicator)
[9] = HTRF assay, read-out: JAK1 kinase inhibitory activity (EC50 indicator)
[10] = HTRF assay, read-out: JAK2 kinase inhibitory activity (EC50 indicator)
[11] = HTRF assay, read-out: JAK3 kinase inhibitory activity (EC50 indicator)
[12] = HTRF assay, read-out: TYK2 kinase inhibitory activity (EC50 indicator)

T3 sequence (P52333 822-1111 limits assumed): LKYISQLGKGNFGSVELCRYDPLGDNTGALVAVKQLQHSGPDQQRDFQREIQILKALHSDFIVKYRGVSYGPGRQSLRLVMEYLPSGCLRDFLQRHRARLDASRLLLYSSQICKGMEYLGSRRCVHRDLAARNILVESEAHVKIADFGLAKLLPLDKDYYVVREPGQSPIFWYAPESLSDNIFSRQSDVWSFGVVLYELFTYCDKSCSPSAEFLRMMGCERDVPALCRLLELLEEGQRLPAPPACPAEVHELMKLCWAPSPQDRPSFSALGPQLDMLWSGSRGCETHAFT
T1 sequence (P23458 850-1154): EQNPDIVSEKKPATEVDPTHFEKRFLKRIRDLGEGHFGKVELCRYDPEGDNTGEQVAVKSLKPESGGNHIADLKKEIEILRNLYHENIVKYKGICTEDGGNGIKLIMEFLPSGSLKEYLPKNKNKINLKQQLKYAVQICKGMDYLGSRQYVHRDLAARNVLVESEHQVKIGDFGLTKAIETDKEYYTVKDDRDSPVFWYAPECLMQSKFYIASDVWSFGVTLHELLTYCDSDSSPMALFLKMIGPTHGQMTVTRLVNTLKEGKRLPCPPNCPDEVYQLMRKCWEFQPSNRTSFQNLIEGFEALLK
T2 sequence (O60674 849-1124 limits assumed): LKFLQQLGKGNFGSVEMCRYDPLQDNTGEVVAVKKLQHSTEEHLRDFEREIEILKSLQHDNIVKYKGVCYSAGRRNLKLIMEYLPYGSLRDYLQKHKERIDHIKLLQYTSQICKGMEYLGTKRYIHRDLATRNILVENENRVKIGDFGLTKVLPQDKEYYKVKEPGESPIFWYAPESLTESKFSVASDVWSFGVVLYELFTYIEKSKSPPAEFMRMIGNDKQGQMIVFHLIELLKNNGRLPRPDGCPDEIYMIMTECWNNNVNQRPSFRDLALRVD

O=C(NC1CCCCC1)N1[C@@H]2CC[C@H]1CN(c1ncnc3[nH]ccc13)C2 [Example 46, 3-(7H-Pyrrolo[2,3-d]pyrimidin-4-yl)-3,8-diaza-bicyclo[3.2.1]octane-8-carboxylic acid cyclohexylamide]
pEC50 [1, 5]: 6.30 to 7.00 | pEC50 [2, 6]: 6.30 to 7.00 | pEC50 [3, 7]: < 6.30 | pEC50 [4, 8]: < 6.30

O=C(CCc1ccccc1)N1[C@@H]2CC[C@@H]1CN(c1ncnc3[nH]ccc13)C2 [Example 168, 3-Phenyl-1-[3-(7H-pyrrolo[2,3-d]pyrimidin-4-yl)-3,8-diaza-bicyclo[3.2.1]oct-8-yl]-propan-1-one]
pEC50 [1, 5]: > 7.00 | pEC50 [2, 6]: > 7.00 | pEC50 [3, 7]: 6.30 to 7.00 | pEC50 [4, 8]: < 6.30

CCCc1cc(C(=O)N2CCN(c3ncnc4[nH]ccc34)CC23CC3)cs1 [Example 207, (5-Propyl-thiophen-3-yl)-[7-(7H-pyrrolo[2,3-d]pyrimidin-4-yl)-4,7-diaza-spiro[2.5]oct-4-yl]-methanone]
pEC50 [1, 9]: > 7.00 | pEC50 [2, 10]: > 7.00 | pEC50 [3, 11]: 6.30 to 7.00 | pEC50 [4, 12]: 6.30 to 7.00

N#Cc1ccc(C(=O)N2[C@@H]3CC[C@@H]2CN(c2ncnc4[nH]ccc24)C3)c(F)c1 [Example 351, 3-Fluoro-4-[3-(7H-pyrrolo[2,3-d]pyrimidin-4-yl)-3,8-diaza-bicyclo[3.2.1]octane-8-carbonyl]-benzonitrile]
pEC50 [1, 9]: > 7.00 | pEC50 [2, 10]: > 7.00 | pEC50 [3, 11]: 6.30 to 7.00 | pEC50 [4, 12]: < 6.30

Cc1ccc(C(=O)N2CCN(c3ncnc4[nH]ccc34)CC23CC3)cc1C(=O)Nc1cccc(C(F)(F)F)c1 [Example 41, 2-Methyl-5-[7-(7H-pyrrolo[2,3-d]pyrimidin-4-yl)-4,7-diazaspiro[2.5]octane-4-carbonyl]-N-(3-trifluoromethylphenyl)benzamide]
pEC50 [1, 5]: 6.30 to 7.00 | pEC50 [2, 6]: < 6.30 | pEC50 [3, 7]: < 6.30 | pEC50 [4, 8]: < 6.30

O=C(c1cccc2[nH]ccc12)N1[C@@H]2CC[C@H]1CN(c1ncnc3[nH]ccc13)C2 [Example 344, (1H-Indol-4-yl)-[3-(7H-pyrrolo[2,3-d]pyrimidin-4-yl)-3,8-diaza-bicyclo[3.2.1]oct-8-yl]-methanone]
pEC50 [1, 9]: 6.30 to 7.00 | pEC50 [2, 10]: > 7.00 | pEC50 [3, 11]: > 7.00 | pEC50 [4, 12]: 6.30 to 7.00

NS(=O)(=O)c1ccc(CC(=O)N2CCN(c3ncnc4[nH]ccc34)CC23CC3)cc1 [Example 191, 4-{2-Oxo-2-[7-(7H-pyrrolo[2,3-d]pyrimidin-4-yl)-4,7-diaza-spiro[2.5]oct-4-yl]-ethyl}-benzenesulfonamide]
pEC50 [1, 5]: > 7.00 | pEC50 [2, 6]: > 7.00 | pEC50 [3, 7]: > 7.00 | pEC50 [4, 8]: < 6.30

N#CCc1ccc(C(=O)N2CCN(c3ccnc4[nH]ccc34)CC23CC3)cc1 [Example 230, {4-[7-(1H-Pyrrolo[2,3-b]pyridin-4-yl)-4,7-diaza-spiro[2.5]octane-4-carbonyl]-phenyl}-acetonitrile]
pEC50 [1, 9]: 6.30 to 7.00 | pEC50 [2, 10]: > 7.00 | pEC50 [3, 11]: 6.30 to 7.00 | pEC50 [4, 12]: < 6.30

N#Cc1ccccc1C(=O)N1CCN(c2ccnc3[nH]ccc23)CC12CC2 [Example 235, 2-[7-(1H-Pyrrolo[2,3-b]pyridin-4-yl)-4,7-diaza-spiro[2.5]octane-4-carbonyl]-benzonitrile]
pEC50 [1, 9]: 6.30 to 7.00 | pEC50 [2, 10]: > 7.00 | pEC50 [3, 11]: < 6.30 | pEC50 [4, 12]: < 6.30

NS(=O)(=O)c1ccc(CC(=O)N2CCN(c3ncnc4[nH]ccc34)CC23CC3)s1 [Example 195, 5-{2-Oxo-2-[7-(7H-pyrrolo[2,3-d]pyrimidin-4-yl)-4,7-diaza-spiro[2.5]oct-4-yl]-ethyl}-thiophene-2-sulfonic acid amide]
pEC50 [1, 5]: > 7.00 | pEC50 [2, 6]: > 7.00 | pEC50 [3, 7]: > 7.00 | pEC50 [4, 8]: 6.30 to 7.00

COc1cc(C(=O)N2CCN(c3ncnc4[nH]ccc34)CC23CC3)ccc1S(N)(=O)=O [Example 378, 2-Methoxy-4-[7-(7H-pyrrolo[2,3-d]pyrimidin-4-yl)-4,7-diaza-spiro[2.5]octane-4-carbonyl]-benzenesulfonamide]
pEC50 [1, 9]: > 7.00 | pEC50 [2, 10]: > 7.00 | pEC50 [3, 11]: > 7.00 | pEC50 [4, 12]: > 7.00

NS(=O)(=O)c1ccc(C(=O)N2CCN(c3ncnc4[nH]ccc34)CC23CC3)o1 [Example 198, 5-[7-(7H-Pyrrolo[2,3-d]pyrimidin-4-yl)-4,7-diaza-spiro[2.5]octane-4-carbonyl]-furan-2-sulfonic acid amide]
pEC50 [1, 5]: > 7.00 | pEC50 [2, 6]: > 7.00 | pEC50 [3, 7]: > 7.00 | pEC50 [4, 8]: > 7.00

O=C(c1ccc(=O)[nH]c1)N1CCN(c2ncnc3[nH]ccc23)CC12CC2 [Example 56, 5-[7-(7H-Pyrrolo[2,3-d]pyrimidin-4-yl)-4,7-diazaspiro[2.5]octane-4-carbonyl]-1H-pyridin-2-one]
pEC50 [1, 5]: > 7.00 | pEC50 [2, 6]: > 7.00 | pEC50 [3, 7]: 6.30 to 7.00 | pEC50 [4, 8]: < 6.30

O=C(c1csc2ccccc12)N1[C@H]2CC[C@H]1CN(c1ncnc3[nH]ccc13)C2 [Example 246, Benzo[b]thiophen-3-yl-[3-(7H-pyrrolo[2,3-d]pyrimidin-4-yl)-3,8-diaza-bicyclo[3.2.1]oct-8-yl]-methanone]
pEC50 [1, 9]: > 7.00 | pEC50 [2, 10]: > 7.00 | pEC50 [3, 11]: > 7.00 | pEC50 [4, 12]: 6.30 to 7.00

N#CCc1cccc(CC(=O)N2[C@@H]3CC[C@@H]2CN(c2ncnc4[nH]ccc24)C3)c1 [Example 346, (3-{2-Oxo-2-[3-(7H-pyrrolo[2,3-d]pyrimidin-4-yl)-3,8-diaza-bicyclo[3.2.1]oct-8-yl]-ethyl}-phenyl)-acetonitrile]
pEC50 [1, 9]: 6.30 to 7.00 | pEC50 [2, 10]: 6.30 to 7.00 | pEC50 [3, 11]: < 6.30 | pEC50 [4, 12]: < 6.30

N#Cc1ccc(CC(=O)N2[C@@H]3CC[C@@H]2CN(c2ncnc4[nH]ccc24)C3)cc1 [Example 180, 4-{2-Oxo-2-[3-(7H-pyrrolo[2,3-d]pyrimidin-4-yl)-3,8-diaza-bicyclo[3.2.1]oct-8-yl]-ethyl}-benzonitrile]
pEC50 [1, 5]: 6.30 to 7.00 | pEC50 [2, 6]: 6.30 to 7.00 | pEC50 [3, 7]: 6.30 to 7.00 | pEC50 [4, 8]: < 6.30

O=C(c1ncco1)N1[C@@H]2CC[C@@H]1CN(c1ncnc3[nH]ccc13)C2 [Example 177, Oxazol-2-yl-[3-(7H-pyrrolo[2,3-d]pyrimidin-4-yl)-3,8-diaza-bicyclo[3.2.1]oct-8-yl]-methanone]
pEC50 [1, 5]: 6.30 to 7.00 | pEC50 [2, 6]: 6.30 to 7.00 | pEC50 [3, 7]: 6.30 to 7.00 | pEC50 [4, 8]: < 6.30

NS(=O)(=O)c1cnn(CC(=O)N2CCN(c3ncnc4[nH]ccc34)CC23CC3)c1 [Example 412, 1-{2-Oxo-2-[7-(7H-pyrrolo[2,3-d]pyrimidin-4-yl)-4,7-diaza-spiro[2.5]oct-4-yl]-ethyl}-1H-pyrazole-4-sulfonic acid amide]
pEC50 [1, 9]: > 7.00 | pEC50 [2, 10]: > 7.00 | pEC50 [3, 11]: > 7.00 | pEC50 [4, 12]: < 6.30

CCc1sc(C(=O)N2CCN(c3ncnc4[nH]ccc34)CC23CC3)cc1Br [Example 209, (4-Bromo-5-ethyl-thiophen-2-yl)-[7-(7H-pyrrolo[2,3-d]pyrimidin-4-yl)-4,7-diaza-spiro[2.5]oct-4-yl]-methanone]
pEC50 [1, 9]: > 7.00 | pEC50 [2, 10]: > 7.00 | pEC50 [3, 11]: 6.30 to 7.00 | pEC50 [4, 12]: > 7.00

O=C(c1ccc(CO)cc1)N1CCN(c2ncnc3[nH]ccc23)CC12CC2 [Example 155, (4-Hydroxymethyl-phenyl)-[7-(7H-pyrrolo[2,3-d]pyrimidin-4-yl)-4,7-diaza-spiro[2.5]oct-4-yl]-methanone]
pEC50 [1, 5]: > 7.00 | pEC50 [2, 6]: > 7.00 | pEC50 [3, 7]: 6.30 to 7.00 | pEC50 [4, 8]: 6.30 to 7.00

NS(=O)(=O)c1cnn(CCC(=O)N2CCN(c3ncnc4[nH]ccc34)CC23CC3)c1 [Example 435, 1-{3-Oxo-3-[7-(7H-pyrrolo[2,3-d]pyrimidin-4-yl)-4,7-diaza-spiro[2.5]oct-4-yl]-propyl}-1H-pyrazole-4-sulfonic acid amide]
pEC50 ([1]; HTRF assay, read-out: JAK1 kinase inhibitory activity (EC50)): > 7.00 | pEC50 ([2]; HTRF assay, read-out: JAK2 kinase inhibitory activity (EC50)): > 7.00 | pEC50 ([3]; HTRF assay, read-out: JAK3 kinase inhibitory activity (EC50)): > 7.00 | pEC50 ([4]; HTRF assay, read-out: TYK2 kinase inhibitory activity (EC50)): 6.30 to 7.00

Cc1c[nH]c2ncnc(N3CCN(C(=O)c4ccc(C#N)cc4)C4(CC4)C3)c12 [Example 118, 4-[7-(5-Methyl-7H-pyrrolo[2,3-d]pyrimidin-4-yl)-4,7-diaza-spiro[2.5]octane-4-carbonyl]-benzonitrile]
pEC50 [1, 5]: < 6.30 | pEC50 [2, 6]: < 6.30 | pEC50 [3, 7]: < 6.30 | pEC50 [4, 8]: < 6.30
